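Cultured in 96-well plates, cells were exposed to test compound for 48 hours across five concentrations. The concentration for full growth arrest is given as TGI.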
Columns and labels:
Experiment in all cases: NCI anticancer screen, dose series, 48 h
[1] = tested on: DU-145 prostate
[2] = tested on: SF-268 CNS
[3] = tested on: HS 578T breast
[4] = tested on: OVCAR-3 ovarian
[5] = tested on: SK-MEL-2 melanoma
[6] = tested on: SF-295 CNS
[7] = tested on: EKVX NSCLC
[8] = tested on: OVCAR-4 ovarian
[9] = tested on: KM12 colon
[10] = tested on: BT-549 breast
[11] = tested on: COLO 205 colon
[12] = tested on: SK-MEL-28 melanoma
[13] = tested on: U251 CNS
[14] = tested on: NCI/ADR-RES ovarian
[15] = tested on: M14 melanoma
[16] = tested on: HL-60(TB) leukemia
[17] = tested on: HCT-15 colon
[18] = tested on: MCF7 breast
[19] = tested on: OVCAR-8 ovarian
[20] = tested on: CAKI-1 renal
[21] = tested on: MDA-MB-231 breast
[22] = tested on: HOP-62 NSCLC
[23] = tested on: ACHN renal
[24] = tested on: SN12C renal
[25] = tested on: MALME-3M melanoma
[26] = tested on: TK-10 renal
[27] = tested on: HCT-116 colon
[28] = tested on: SNB-75 CNS
[29] = tested on: HOP-92 NSCLC
[30] = tested on: PC-3 prostate
[31] = tested on: UO-31 renal
[32] = tested on: NCI-H460 lung
[33] = tested on: MDA-N
[34] = tested on: MOLT-4 leukemia
[35] = tested on: UACC-257 melanoma
[36] = tested on: T-47D breast
[37] = tested on: A549 NSCLC
[38] = tested on: 786-0 renal
[39] = tested on: RXF 393 renal
[40] = tested on: UACC-62 melanoma
[41] = tested on: CCRF-CEM leukemia
[42] = tested on: LOX IMVI melanoma
[43] = tested on: SNB-19 CNS
[44] = tested on: HCC-2998 colon
[45] = tested on: NCI-H522 lung
[46] = tested on: SF-539 CNS
[47] = tested on: MDA-MB-435
[48] = tested on: OVCAR-5 ovarian
[49] = tested on: A498 renal
[50] = tested on: K-562 leukemia
[51] = tested on: HT29 colon
[52] = tested on: SK-OV-3 ovarian
[53] = tested on: SK-MEL-5 melanoma
[54] = tested on: SR leukemia
[55] = tested on: NCI-H23 lung
[56] = tested on: SW-620 colon
[57] = tested on: IGROV1 ovarian
[58] = tested on: NCI-H226 lung
[59] = tested on: RPMI-8226 leukemia

Structure (SMILES): CCN1CCC(O)(/C=C/c2ccc(C(C)C)cc2)C(C(=O)/C=C/c2ccc(C(C)C)cc2)C1 (centres undefined)
- TGI [1]: 9.76 µM
- TGI [2]: 4.31 µM
- TGI [3]: 5.68 µM
- TGI [4]: 11.7 µM
- TGI [5]: 10.5 µM
- TGI [6]: 9.36 µM
- TGI [7]: 5.74 µM
- TGI [8]: 8.71 µM
- TGI [9]: 4.87 µM
- TGI [10]: 16.2 µM
- TGI [11]: 5.11 µM
- TGI [12]: 11.7 µM
- TGI [13]: 7.32 µM
- TGI [14]: 8.44 µM
- TGI [15]: > 40.5 µM
- TGI [16]: > 26.8 µM
- TGI [17]: 4.63 µM
- TGI [18]: 14 µM
- TGI [19]: 4.31 µM
- TGI [20]: 8.86 µM
- TGI [21]: 3.82 µM
- TGI [22]: 13.3 µM
- TGI [23]: 3.31 µM
- TGI [24]: 6.06 µM
- TGI [25]: 10.5 µM
- TGI [26]: 6.16 µM
- TGI [27]: 3.53 µM
- TGI [28]: 11.7 µM
- TGI [29]: 3.69 µM
- TGI [30]: 11.4 µM
- TGI [31]: 7.88 µM
- TGI [32]: 3.35 µM
- TGI [33]: 5 µM
- TGI [34]: 5.18 µM
- TGI [35]: 19.4 µM
- TGI [36]: 6.19 µM
- TGI [37]: 11.5 µM
- TGI [38]: 3.4 µM
- TGI [39]: 6.59 µM
- TGI [40]: 15.7 µM
- TGI [41]: 4.36 µM
- TGI [42]: 3.38 µM
- TGI [43]: 15.5 µM
- TGI [44]: 3.64 µM
- TGI [45]: 4.21 µM
- TGI [46]: 4.58 µM
- TGI [47]: 8.99 µM
- TGI [48]: 12 µM
- TGI [49]: 19.1 µM
- TGI [50]: > 29 µM
- TGI [51]: 6.21 µM
- TGI [52]: 31.8 µM
- TGI [53]: 12.7 µM
- TGI [54]: > 20.9 µM
- TGI [55]: 5.88 µM
- TGI [56]: 7.25 µM
- TGI [57]: 6.79 µM
- TGI [58]: 9.06 µM

Structure (SMILES): CC(=O)OC1COC(Nc2nc(N)n(C)c(=O)c2N=O)C(OC(C)=O)C1OC(C)=O (centres undefined)
- TGI [1]: > 10 µM
- TGI [2]: > 10 µM
- TGI [3]: > 10 µM
- TGI [4]: > 10 µM
- TGI [5]: > 10 µM
- TGI [6]: > 10 µM
- TGI [7]: > 10 µM
- TGI [8]: > 10 µM
- TGI [9]: > 10 µM
- TGI [10]: > 10 µM
- TGI [11]: > 10 µM
- TGI [12]: > 10 µM
- TGI [13]: > 10 µM
- TGI [14]: > 10 µM
- TGI [15]: > 10 µM
- TGI [16]: > 10 µM
- TGI [18]: > 10 µM
- TGI [19]: > 10 µM
- TGI [20]: > 10 µM
- TGI [21]: > 10 µM
- TGI [22]: > 10 µM
- TGI [23]: > 10 µM
- TGI [24]: > 10 µM
- TGI [25]: > 10 µM
- TGI [26]: > 10 µM
- TGI [27]: > 10 µM
- TGI [28]: > 10 µM
- TGI [29]: > 10 µM
- TGI [30]: > 10 µM
- TGI [32]: > 10 µM
- TGI [33]: > 10 µM
- TGI [34]: > 10 µM
- TGI [35]: > 10 µM
- TGI [36]: > 10 µM
- TGI [37]: > 10 µM
- TGI [38]: > 10 µM
- TGI [59]: > 10 µM
- TGI [39]: > 10 µM
- TGI [40]: > 10 µM
- TGI [41]: > 10 µM
- TGI [42]: > 10 µM
- TGI [43]: > 10 µM
- TGI [44]: > 10 µM
- TGI [45]: > 10 µM
- TGI [46]: > 10 µM
- TGI [47]: > 10 µM
- TGI [48]: > 10 µM
- TGI [49]: > 10 µM
- TGI [51]: > 10 µM
- TGI [52]: > 10 µM
- TGI [53]: > 10 µM
- TGI [54]: > 10 µM
- TGI [55]: > 10 µM
- TGI [56]: > 10 µM
- TGI [57]: > 10 µM
- TGI [58]: > 10 µM

From PubChem BioAssay (NCI)
